# US20250304549A1, “HYDROXYAMIDE DERIVATIVE AND USE THEREOF” (SICHUAN HUIYU PHARMACEUTICAL CO., LTD., priority 2022, published 2025)
# Where a name gives a salt, the structure may show the parent alone.
# Columns and labels:
# LSD1 = LSD1 (Homo sapiens (Human), UniProt O60341); test: In vitro enzyme inhibition assay - LSD1 (HTRF); assay type: biochemical
# pan-HDAC = test: In vitro enzyme inhibition assay - HDAC (HDAC-Glo I/II), pan-HDAC; assay type: biochemical
# Summary of the method: (§1)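 Inhibition was measured with the HDAC-Glo I/II luminescent assay, testing compound as an 8-point, 5-fold dilution series from a 1 mM DMSO stock. Luminescence (RLU) was normalized to no-inhibitor and no-enzyme controls, and IC50 was derived by four-parameter variable-slope fitting.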
# HDAC8 = HDAC8 (Homo sapiens (Human), UniProt Q9BY41); test: In vitro enzyme inhibition assay - HDAC (HDAC-Glo I/II), HDAC8; assay type: biochemical; conditions: read-out: HDAC IC50 (nM) HDAC 8
# Summary of the method: as §1
# NCI-H1417 cells = test: In vitro cell inhibition assay - H1417 cell proliferation (CellTiter-Glo); assay type: cell-based
# Summary of the method: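 Cells exposed to 8 compound concentrations (5-fold dilutions) in BEGM with 10% FBS for 7 days at 37° C., 5% CO2. Viable cells measured by CellTiter-Glo luminescence; inhibition versus no-inhibitor and no-cell controls, IC50 fitted.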
# NCI-H69 cells = test: In vitro cell inhibition assay - NCI-H69 cell proliferation (CellTiter-Glo); assay type: cell-based
# Summary of the method: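 Cells seeded at 1×10^3 per well and incubated overnight at 37° C., 5% CO2, then treated with 8-point 5-fold compound dilutions in RPMI-640 with 20% FBS for 7 days. Viable cells measured by CellTiter-Glo luminescence; IC50 fitted from inhibition relative to no-inhibitor and no-cell controls.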
# DU145 cells = test: In vitro cell inhibition assay - DU145 cell proliferation (CellTiter-Glo); assay type: cell-based
# Description: 5. In Vitro Cell Inhibition Assay—DU145 Cell Proliferation
# The inhibitory effect of the compounds on cell proliferation was assessed by detecting the number of viable cells using the CellTiter-Glo® reagent. DU145 cells in the logarithmic growth phase were collected and inoculated into transparent bottom 96-well plates at a density 1×10^3 cells per well with 100 μL medium, and incubated at 37° C., 5% CO2 overnight. The compounds were sequentially diluted in a 5-fold concentration gradient with DMSO to obtain 8 different concentrations. These were then diluted with RPMI-640 (containing 10% FBS) cell culture medium to obtain the compound working solution (2×), which was added to the cell supernatant at 100 μL per well. The incubation continued for 6 days at 37° C., 5% CO2. The plate was then removed and equilibrated at room temperature (25° C.) along with the CellTiter-Glo® mixing reagent for 10-30 minutes. After centrifugation, 120 μL of the culture medium was carefully aspirated from each well, and 60 μL of CellTiter-Glo® reagent was added. The cells were thoroughly mixed with the CellTiter-Glo® mixing reagent using a microplate shaker for 2 min. and then incubated at room temperature for 10 min. The 96-well plate was subsequently placed on a multifunctional microplate reader to record the Luminescence values (RLU).
# The inhibition rate was calculated using the following formula: […]
# Note: ‘Negative’ refers to the group without inhibitors; ‘Blank’ refers to the group without cells.
# The IC50 value was determined by fitting the inhibition rate by GraphPad Prism software.
# [1] = H1417 small cell lung cancer cell proliferation
# [2] = H69 small cell lung cancer cell proliferation
# [3] = Du145 prostate cancer cell proliferation
# [4] = Homo sapiens, NCI-H1417, H1417 small cell lung cancer cell proliferation
# [5] = Homo sapiens, NCI-H69, H69 small cell lung cancer cell proliferation
# [6] = Homo sapiens, DU-145, Du145 prostate cancer cell proliferation
# HDAC8, sequence (Q9BY41 whole entry): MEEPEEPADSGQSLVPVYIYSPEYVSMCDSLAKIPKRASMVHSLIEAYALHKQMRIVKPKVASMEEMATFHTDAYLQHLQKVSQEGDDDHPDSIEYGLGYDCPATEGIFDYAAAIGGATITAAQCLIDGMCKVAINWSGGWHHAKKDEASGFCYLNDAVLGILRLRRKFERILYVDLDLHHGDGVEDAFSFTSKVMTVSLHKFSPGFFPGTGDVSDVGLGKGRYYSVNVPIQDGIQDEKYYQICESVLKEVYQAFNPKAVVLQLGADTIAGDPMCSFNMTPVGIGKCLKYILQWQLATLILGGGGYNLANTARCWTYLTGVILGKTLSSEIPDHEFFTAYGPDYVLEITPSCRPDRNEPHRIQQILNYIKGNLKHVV
Compound,IC50 (LSD1) [nM],IC50 (pan-HDAC) [nM],IC50 (HDAC8) [nM],IC50 (NCI-H1417 cells; [1]) [nM],IC50 (NCI-H69 cells; [2]) [nM],IC50 (DU145 cells; [3]) [nM],IC50 (NCI-H1417 cells; [4]) [nM],IC50 (NCI-H69 cells; [5]) [nM],IC50 (DU145 cells; [6]) [nM]
"COc1ccc(-c2ccc(CN3CC[C@H](NCc4ccc(/C=C/C(=O)NO)cc4)C3)cc2-c2ccc(C#N)c(F)c2)cc1O [Example 74, (S,E)-3-(4-(((1-((4″-cyano-3″-fluoro-3-hydroxy-4-methoxy-[1,1:2′,1″-terphenyl]-4′-yl)methyl)pyrrolidin-3-yl)amino)methyl)phenyl)-N-hydroxyacrylamide formate]",2.26,23.1,207,40.1,205,553,,,
"COc1cc(-c2ccc(CN3CC[C@H](NCc4ccc(/C=C/C(=O)NO)cc4)C3)cc2-c2ccc(C#N)c(F)c2)ccc1O [Example 75, (S,E)-3-(4-(((1-((4″-Cyano-3″-fluoro-4-hydroxy-3-methoxy-[1,1:2,1″-terphenyl]-4′-yl)methyl)pyrrolidin-3-yl)amino)methyl)phenyl)-N-hydroxyacrylamide formate]",129,76.6,212,,,,473,403,677
"COc1ccc(-c2cnc(N3CCC4(CC3)CN(Cc3ccc(/C=C/C(=O)NO)cc3)C4)c(C#N)c2-c2ccc(C#N)c(F)c2)cc1O [Example 138, (E)-3-(4-(((7-(3-Cyano-4-(4-cyano-3-fluorophenyl)-5-(3-hydroxy-4-methoxyphenyl)pyridin-2-yl)-2,7-diazaspiro[3.5]nonan-2-yl)methyl)phenyl)-N-hydroxyacrylamide formate]",21.4,61,401,,,,30.7,91.6,372
"COc1ccc(-c2cnc(N3CCC(NCCNc4ncc(C(=O)NO)cn4)CC3)c(C#N)c2-c2ccc(C#N)c(F)c2)cc1O [Example 115, 2-(2-(1-(3-Cyano-4-(4-cyano-3-fluorophenyl)-5-(3-hydroxy-4-methoxyphenyl)pyridin-2-yl)piperidin-4-yl)amino)ethyl) amino)-N-hydroxypyrimidine-5-carboxamide formate]",0.16,20.6,37.1,,,,2.25,3340,6340
"COc1ccc(-c2ccc(C(=O)N3CC[C@H](NCc4ccc(/C=C/C(=O)NO)cc4)C3)cc2-c2ccc(C#N)c(F)c2)cc1O [Example 72, (S,E)-3-(4-(((1-(4″-cyano-3″-fluoro-3-hydroxy-4-methoxy-[1,1′:2′,1″-terphenyl]-4′-carbonylpyrrolidin-3-yl)amino)methyl)phenyl)-N-hydroxyacrylamide formate]",8.42,110,160,166,970,2750,,,
"COc1ccc(-c2cnc(N3CCC(Nc4ncc(C(=O)NO)cn4)CC3)c(C#N)c2-c2ccc(C#N)c(F)c2)cc1O [Example 83, 2-((1-(3-Cyano-4-(4-cyano-3-fluorophenyl)-5-(3-hydroxy-4-methoxyphenyl)pyridin-2-yl)piperidin-4-yl)amino)-N-hydroxypyrimidine-5-carboxamide formate]",8.51,438,374,,,,76.8,1140,2820
"COc1ccc(-c2cnc(N3CCC(NCc4ccc(/C=C/C(=O)NO)cc4OC)CC3)c(C#N)c2-c2ccc(C#N)c(F)c2)cc1O [Example 132, (E)-3-(4-(((1-(3-Cyano-4-(4-cyano-3-fluorophenyl)-5-(3-hydroxy-4-methoxyphenyl)pyridin-2-yl)piperidin-4-yl)amino)methyl)-3-methoxyphenyl)-N-hydroxyacrylamide formate]",10.8,3.86,171,,,,13.2,103,235
"COc1ccc(-c2cnc(N3CCC(Nc4cccc(/C=C/C(=O)NO)c4)CC3)c(C#N)c2-c2ccc(C#N)c(F)c2)cc1O [Example 81, (E)-3-(3-((1-(3-cyano-4-(4-cyano-3-fluorophenyl)-5-(3-hydroxy-4-methoxyphenyl)pyridin-2-yl)piperidin-4-yl)amino)phenyl)-N-hydroxyacrylamide formate]",140,1220,695,,,,73.9,516,776
"COc1ccc(-c2cnc(N3CCC(NCC4CCN(c5ccc(C(=O)NO)cc5)CC4)CC3)c(C#N)c2-c2ccc(C#N)c(F)c2)cc1O [Example 121, 4-(4-((1-(3-Cyano-4-(4-cyano-3-fluorophenyl)-5-(3-hydroxy-4-methoxyphenyl)pyridin-2-yl)piperidin-4-yl)amino)methyl) piperidin-1-yl)-N-hydroxybenzamide formate]",0.35,404,17.2,,,,15.6,127,2220
"Cn1cnc2cc(-c3cnc(N4CCC(NCc5ccc(/C=C/C(=O)NO)cc5)CC4)c(C#N)c3-c3ccc(C#N)c(F)c3)ccc21 [Example 136, (E)-3-(4-(((1-(3-Cyano-4-(4-cyano-3-fluorophenyl)-5-(1-methyl-1H-benzo[d]imidazol-5-yl))pyridin-2-yl)piperidin-4-yl)amino)methyl) phenyl)-N-hydroxyacrylamide formate]",17.2,10.4,77.7,,,,29.1,93.7,364
"N#Cc1ccc(-c2c(-c3ccc(OC(F)F)c(O)c3)cnc(N3CCC(NCc4cnc(/C=C/C(=O)NO)nc4)CC3)c2C#N)cc1F [Example 145, (E)-3-(5-(((1-(3-Cyano-4-(4-cyano-3-fluorophenyl)-5-(4-(difluoromethoxy)-3-hydroxyphenyl)pyridin-2-yl)piperidin-4-yl)amino)methyl)pyrimidin-2-yl)-N-hydroxyacrylamide formate]",3.35,5.23,74.9,,,,18.6,39.3,37.8
"COc1cc(-c2cnc(N3CCC(NCc4ccc(/C=C/C(=O)NO)cc4)CC3)c(C#N)c2-c2ccc(C#N)c(F)c2)ccc1O [Example 100, (E)-3-(4-((1-(3-Cyano-4-(4-cyano-3-fluorophenyl)-5-(4-hydroxy-3-methoxyphenyl)pyridin-2-yl)piperidin-4-yl)amino)methyl) phenyl)-N-hydroxyacrylamide hydrochloride]",49.5,35.5,36,,,,118,104,313
"COc1cc(-c2cnc(N3CC4CC3CC4NCc3ccc(/C=C/C(=O)NO)cc3)c(C#N)c2-c2ccc(C#N)c(F)c2)ccc1O (stereo not drawn) [Example 94, (E)-3-(4-(2-(3-Cyano-4-(4-cyano-3-fluorophenyl)-5-(4-hydroxy-3-methoxyphenyl)pyridin-2-yl)-2-azabicyclo[2.2.1]heptan-5-yl)amino)methyl) phenyl)-N-hydroxyacrylamide formate]",173,110,256,160,190,495,,,
"COc1ccc(-c2cnc(N3CCC(NCc4ncc(/C=C/C(=O)NO)s4)CC3)c(C#N)c2-c2ccc(C#N)c(F)c2)cc1O [Example 151, (E)-3-(2-(((1-(3-Cyano-4-(4-cyano-3-fluorophenyl)-5-(3-hydroxy-4-methoxyphenyl)pyridin-2-yl)piperidin-4-yl)amino)methyl)thiazol-5-yl)-N-hydroxyacrylamide hydrochloride]",2.7,27.4,618,,,,10.4,189,308
"COc1ccc(-c2cnc(N3CCC(N)(c4ccc(/C=C/C(=O)NO)cc4)CC3)c(C#N)c2-c2ccc(C#N)c(F)c2)cc1O [Example 85, (E)-3-(4-(4-amino-1-(3-cyano-4-(4-cyano-3-fluorophenyl)-5-(3-hydroxy-4-methoxyphenyl)pyridin-2-yl))piperidin-4-yl)phenyl)-N-hydroxyacrylamide formate]",209,110,542,256,407,1550,,,
